Measurements taken from patent US20230097866A1, “BACTERIAL TOPOISOMERASE INHIBITORS DERIVED FROM ISOMANNIDE” (Ohio State Innovation Foundation, priority 2020, published 2023).
In brackets after ≈: the same amount, converted by molar mass. Read-outs that look alike come from different tables or passages of the source.

Columns and labels:
S. aureus ATCC 29213 [1] = format: cell-based, Staphylococcus aureus; conditions: S. aureus ATCC 29213
[2] = system: Pseudomonas aeruginosa LSI-2946; test: MIC panel (Laboratory Specialists, Inc.), P. aeruginosa; format: cell-based; conditions: LSI2946, Cmpd. 6, CLSI broth microdilution
Dopamine transporter = Dopamine transporter (Homo sapiens, UniProt Q01959); test: Off-target safety panel, dopamine transporter; format: binding; conditions: duplicate, read-out: % Inhibition at 100 μM conc., Dopamine transporter
Procedure: (§1) Potential off-target pharmacology for compound 6 was also evaluated by screening in duplicate against a panel (Bowes, J., et al., Reducing Safety-Related Drug Attrition: The Use of in vitro Pharmacological Profiling. Nat. Rev. Drug Disc. 2012, 11, 909-922) of 44 receptors, enzymes, etc. Of the 44 potential targets, only five were inhibited by >50% at a concentration of 100 μM (Table 7).

[3] = system: Acinetobacter baumannii LSI-2957; test: MIC panel (Laboratory Specialists, Inc.), A. baumannii; format: cell-based; conditions: LSI2957, Cmpd. 6, CLSI broth microdilution
5-HT2B = 5-HT2B (Homo sapiens, UniProt P41595); test: Off-target safety panel, 5-HT2B; format: binding; conditions: duplicate, read-out: % Inhibition at 100 μM conc., 5-HT2B
Procedure: as §1

Caco-2 cells = format: in vitro ADME; conditions: human, Caco-2, 10 μM, pH 7.4
Procedure: Caco-2 cells were plated on Transwell inserts and permeability assays were performed at day 21-25 post-plating. A single concentration of test compound (10 μM final) was prepared in HSS-HEPES buffer (pH 7.4) with a final DMSO concentration of 0.1%. To determine apical to basolateral (A to B) transport, test compounds were applied to the apical compartment in the presence and absence of the P-gp inhibitor verapamil (100 μM final). Atenolol and caffeine were assayed as control compounds. Samples were collected at various time points and analyzed using LC-MS/MS methods to determine the apparent permeability coefficient (Papp), efflux ratio, and recovery of the test compound.
Transport in the opposite direction (B to A) was also determined.

[4] = target: T1, Nav1.5 Late Current Human Ion Channel (Homo sapiens, UniProt Q14524); test: Nav1.5 late current agonist QPatch CiPA assay; format: cell-based; conditions: normalized to ATXII response
T1 construct: expressed in transfected cells
Text: (§2) Early drug discovery programs commonly assess hERG inhibition as the only indicator of potential cardiovascular safety concerns. Researchers have recently recommended a more rigorous evaluation of multiple cardiac ion channels to provide a more comprehensive cardiovascular risk assessment (Fermini, B., et al., A New Perspective in the Field of Cardiac Safety Testing through the Comprehensive In Vitro Proarrhythmia Assay Paradigm. J. Biomolec. Screening 2016, 21, 1-11). Given the promising initial results for 6, further evaluation was undertaken (in duplicate) in a Comprehensive in vitro Proarrhythmia Assay (CiPA) eight assay panel run on the QPatch HT (Sophion, Denmark) automated patch clamp system at three concentrations (3, 30, and 100 μM). All data were filtered for seal quality, seal drop, and current amplitude. A stock solution of the test compound at 30 mM concentration was prepared in DMSO.
The parameters measured were the degree of activation of inward current (charge) evoked on stepping to −15 mV from the test pulse. The peak and ramp current (charge) amplitude was calculated before and after compound addition and the amount of current (charge) was assessed by dividing the Test compound current (charge) by the Control current (charge). Control is the mean hNav1.5 late current (charge) collected 15 seconds at the end of the control; Test Compound is the mean hNav1.5 current (charge) collected in the presence of test compound at each concentration. Changes in charge were normalized to the maximum response of the EC50 of ATXII (positive control).

CYP3A4 = target: T2, CYP3A4 (Homo sapiens, UniProt P08684); test: CYP450 inhibition in human liver microsomes, CYP3A4; format: in vitro ADME; conditions: both sexes
T2 construct: incubated with human liver microsomes (mixed gender, pool of 50 donors, 0.1 mg/mL); from tissue; host or cells: human liver microsomes, pool of 50 donors
Procedure: CYP450 inhibition assays was conducted using individual enzyme substrates and inhibitors instead of a cocktail to avoid interferences. CYP450 isoforms tested included the following: CYP1A2, CYP2B6, CYP2C8, CYP2C9, CYP2C19, CYP2D6, and CYP3A4. […] Each test compound was incubated with human liver microsomes (mixed gender, pool of 50 donors, 0.1 mg/mL), CYP450-selective probe substrates, and co-factors (NADPH, MgCl2) in phosphate buffer (pH 7.4) for 10-30 min in a 96-well plate at 37° C. The reactions were stopped by transferring the reaction mixture to acetonitrile/methanol. Samples were mixed and centrifuged, and the supernatants analyzed by LC-MS/MS to quantify percent inhibition relative to vehicle control.

[5] = target: T3, Nav 1.5 Human Sodium Ion Channel (Homo sapiens, UniProt Q14524); test: Nav 1.5 QPatch CiPA assay; format: cell-based; conditions: mean, duplicate
T3 construct: expressed in transfected cells
Text: as §2
The parameters measured were the maximum inward current evoked on stepping to −15 mV from the test pulse. The peak current amplitude was calculated before and after compound addition and the amount of block was assessed by dividing the Test compound current amplitude by the Control current amplitude. Control is the mean hNav1.5 current amplitude collected 15 seconds at the end of the control; Test Compound is the mean hNav1.5 current amplitude collected in the presence of test compound at each concentration. The positive control compound was tetracaine.

S. aureus ATCC 29213 [6] = test: MIC panel (Laboratory Specialists, Inc.), S. aureus ATCC 29213; format: cell-based; conditions: Staphylococcus aureus, ATCC29213, read-out: MIC S. aureus ATCC 29213 (n = 3); Cmpd. 6; CLSI broth microdilution; very small pinpoint growth up to 4 μg/mL
[7] = system: S. aureus strain isolated from a cystic fibrosis patient; test: MIC, CLSI broth microdilution, CF isolate; format: cell-based; conditions: Staphylococcus aureus; CLSI broth microdilution; read-out: MIC CF isolate
[8] = liver microsomes, pH 7.4, probe midazolam, Exp. 1, read-out: CYP3A4 (midazolam hydroxylase) % of control (Exp. 1)
[9] = liver microsomes, pH 7.4, probe midazolam, Exp. 2, read-out: CYP3A4 (midazolam hydroxylase) % of control (Exp. 2)
[10] = liver microsomes, pH 7.4, probe midazolam, Exp. 3, read-out: CYP3A4 (midazolam hydroxylase) % of control (Exp. 3)

T2 sequence (P08684 whole entry): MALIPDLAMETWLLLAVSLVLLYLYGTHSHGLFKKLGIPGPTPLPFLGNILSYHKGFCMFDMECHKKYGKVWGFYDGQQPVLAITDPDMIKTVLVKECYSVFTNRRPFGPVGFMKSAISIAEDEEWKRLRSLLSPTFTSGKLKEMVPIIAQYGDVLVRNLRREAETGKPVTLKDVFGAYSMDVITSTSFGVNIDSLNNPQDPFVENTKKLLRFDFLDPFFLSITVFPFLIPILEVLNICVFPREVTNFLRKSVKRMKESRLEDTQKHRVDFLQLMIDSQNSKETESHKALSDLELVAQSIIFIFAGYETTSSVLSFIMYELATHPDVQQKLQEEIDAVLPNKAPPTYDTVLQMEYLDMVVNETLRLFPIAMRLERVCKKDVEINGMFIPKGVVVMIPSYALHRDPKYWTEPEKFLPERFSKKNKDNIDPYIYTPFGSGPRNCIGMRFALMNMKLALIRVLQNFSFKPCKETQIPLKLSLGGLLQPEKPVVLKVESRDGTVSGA
T3 sequence (Q14524 whole entry): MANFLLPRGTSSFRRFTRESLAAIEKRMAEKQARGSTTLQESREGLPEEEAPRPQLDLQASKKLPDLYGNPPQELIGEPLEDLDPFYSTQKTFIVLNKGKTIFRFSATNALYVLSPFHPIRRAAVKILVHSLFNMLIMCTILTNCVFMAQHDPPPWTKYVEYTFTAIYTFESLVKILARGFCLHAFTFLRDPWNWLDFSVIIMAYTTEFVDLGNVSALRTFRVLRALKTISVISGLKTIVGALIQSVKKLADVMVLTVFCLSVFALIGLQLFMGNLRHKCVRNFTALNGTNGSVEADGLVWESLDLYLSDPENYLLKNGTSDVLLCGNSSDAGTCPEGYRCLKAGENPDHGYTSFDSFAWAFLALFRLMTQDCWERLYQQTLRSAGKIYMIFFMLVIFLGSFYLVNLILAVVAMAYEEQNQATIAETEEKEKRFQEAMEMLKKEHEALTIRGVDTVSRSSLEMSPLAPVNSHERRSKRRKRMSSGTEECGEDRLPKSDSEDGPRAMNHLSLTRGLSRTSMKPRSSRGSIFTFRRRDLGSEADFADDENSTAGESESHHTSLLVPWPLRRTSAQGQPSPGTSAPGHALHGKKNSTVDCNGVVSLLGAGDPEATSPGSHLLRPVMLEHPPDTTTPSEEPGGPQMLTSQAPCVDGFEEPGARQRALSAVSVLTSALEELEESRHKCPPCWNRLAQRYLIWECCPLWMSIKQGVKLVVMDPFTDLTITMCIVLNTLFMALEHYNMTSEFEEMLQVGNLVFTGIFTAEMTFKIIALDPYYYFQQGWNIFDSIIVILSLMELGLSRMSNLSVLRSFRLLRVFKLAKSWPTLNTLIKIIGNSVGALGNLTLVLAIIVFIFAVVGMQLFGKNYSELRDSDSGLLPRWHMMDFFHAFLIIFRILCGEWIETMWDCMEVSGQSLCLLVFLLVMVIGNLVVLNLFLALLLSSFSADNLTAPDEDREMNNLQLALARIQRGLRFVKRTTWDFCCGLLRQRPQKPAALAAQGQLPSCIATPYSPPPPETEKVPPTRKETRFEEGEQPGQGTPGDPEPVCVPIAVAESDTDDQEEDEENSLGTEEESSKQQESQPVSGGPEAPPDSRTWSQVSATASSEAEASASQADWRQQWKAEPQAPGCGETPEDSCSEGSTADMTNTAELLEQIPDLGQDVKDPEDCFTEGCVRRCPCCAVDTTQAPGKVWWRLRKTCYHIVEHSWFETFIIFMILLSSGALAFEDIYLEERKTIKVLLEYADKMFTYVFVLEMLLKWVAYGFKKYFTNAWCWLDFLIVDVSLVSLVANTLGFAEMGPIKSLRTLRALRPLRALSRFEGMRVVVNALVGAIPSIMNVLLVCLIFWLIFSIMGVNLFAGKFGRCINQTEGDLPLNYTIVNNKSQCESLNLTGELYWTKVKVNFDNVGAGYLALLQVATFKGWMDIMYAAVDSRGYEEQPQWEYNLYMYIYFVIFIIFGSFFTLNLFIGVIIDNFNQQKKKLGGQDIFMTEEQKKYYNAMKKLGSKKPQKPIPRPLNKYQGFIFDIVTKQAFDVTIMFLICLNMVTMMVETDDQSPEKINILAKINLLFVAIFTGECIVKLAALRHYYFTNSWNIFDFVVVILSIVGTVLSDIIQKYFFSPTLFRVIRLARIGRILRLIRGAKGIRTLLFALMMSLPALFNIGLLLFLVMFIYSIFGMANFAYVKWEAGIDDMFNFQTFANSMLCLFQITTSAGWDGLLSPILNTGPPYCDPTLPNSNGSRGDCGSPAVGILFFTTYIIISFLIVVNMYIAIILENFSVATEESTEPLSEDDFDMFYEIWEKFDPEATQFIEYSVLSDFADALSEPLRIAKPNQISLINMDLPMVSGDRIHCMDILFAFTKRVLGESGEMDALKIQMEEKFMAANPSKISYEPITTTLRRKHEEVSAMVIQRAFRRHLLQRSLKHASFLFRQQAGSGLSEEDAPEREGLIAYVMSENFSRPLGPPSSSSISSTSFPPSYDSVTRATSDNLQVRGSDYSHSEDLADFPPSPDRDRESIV
T1 sequence (Q14524 whole entry): as above
Chain of 5-HT2B (P41595 whole entry, species assumed): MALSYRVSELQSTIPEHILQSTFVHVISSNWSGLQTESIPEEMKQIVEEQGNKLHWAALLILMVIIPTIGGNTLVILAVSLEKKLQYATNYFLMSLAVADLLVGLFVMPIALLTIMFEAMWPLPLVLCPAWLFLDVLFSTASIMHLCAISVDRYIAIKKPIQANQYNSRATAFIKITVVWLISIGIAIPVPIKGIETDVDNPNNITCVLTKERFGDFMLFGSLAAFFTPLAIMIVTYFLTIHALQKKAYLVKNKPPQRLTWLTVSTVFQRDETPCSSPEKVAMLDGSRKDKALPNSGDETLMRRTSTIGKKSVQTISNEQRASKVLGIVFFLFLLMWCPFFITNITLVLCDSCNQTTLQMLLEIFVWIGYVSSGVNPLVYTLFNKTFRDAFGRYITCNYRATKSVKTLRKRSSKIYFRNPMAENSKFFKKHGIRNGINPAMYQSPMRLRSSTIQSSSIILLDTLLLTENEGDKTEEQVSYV

In the case of `COc1ccc2ncc(F)c(CC[C@@]3(O)CO[C@@H]4[C@@H](NCc5cc6c(cn5)OCCO6)CO[C@@H]43)c2n1` [Compound 6, (3R, 3aS,6S,6aR)-6-(((2,3-dihydro-[1,4]dioxino[2,36-c]pyridin-7-yl)methyl)amnino)-3-(2-(3-fluoro-6-methoxy-1,5-naphthyridin-4-yl)ethyl)hexahydrofuro[3,2-b]furan-3-ol], the “Spontaneous mutation frequency (8X MIC)” value (S. aureus ATCC 29213 [1]; 8X agar dilution MIC) is reported as 7.89 × 10^−8 (n = 1), the “Spontaneous mutation frequency (16X MIC)” value (S. aureus ATCC 29213 [1]; 16X agar dilution MIC) is reported as 1.57 × 10^−9 (n = 1) and the MIC [2] is reported as ≤ 0.12 µg/mL. The inhibition at 100 µM (Dopamine transporter) was 96%, the MIC [3] was ≤ 0.12 µg/mL and the inhibition at 100 µM (5-HT2B) was 95%. The “Caco-2 permeability A→B” value (Caco-2 cells) was 10.8 ×10⁻⁶ cm/s, the “Caco-2 permeability B→A” value (Caco-2 cells) was 85.3 ×10⁻⁶ cm/s and the “Navi1.5 Late (agonist - activation of late current)” value (shortened to “Navi1.5 Late”) ([4]; 3 μM) was 3.4%. The “Navi1.5 Late” value ([4]; 30 μM) was 7.7%, the “Navi1.5 Late” value ([4]; 100 μM) was 17.0% and the activity at 3 µM (CYP3A4; human liver microsomes, pH 7.4, probe midazolam (midazolam hydroxylase activity), Exp. 1, read-out: CYP3A4 (midazolam hydroxylase) % of control (Exp. 1)) was 74.3%. The activity at 3 µM (CYP3A4; human liver microsomes, pH 7.4, probe midazolam (midazolam hydroxylase activity), Exp. 2, read-out: CYP3A4 (midazolam hydroxylase) % of control (Exp. 2)) was 77.2%, the activity at 3 µM (CYP3A4; human liver microsomes, pH 7.4, probe midazolam (midazolam hydroxylase activity), Exp. 3, read-out: CYP3A4 (midazolam hydroxylase) % of control (Exp. 3)) was 60.4% and the activity at 10 µM (CYP3A4; human liver microsomes, pH 7.4, probe midazolam (midazolam hydroxylase activity), 10 μM, Exp. 3, read-out: CYP3A4 (midazolam hydroxylase) % of control (Exp. 3)) was 74.5%. For the same compound, the activity at 0.1 µM (CYP3A4; [8]) was 116%, the activity at 0.1 µM (CYP3A4; [9]) was 108% and the activity at 0.1 µM (CYP3A4; [10]) was 97%. It also gave an activity at 0.3 µM (CYP3A4; [8]) of 89.9%, an activity at 0.3 µM (CYP3A4; [9]) of 113% and an activity at 0.3 µM (CYP3A4; [10]) of 99.2%. The activity at 1 µM (CYP3A4; [8]) was 60.4%, the activity at 1 µM (CYP3A4; [9]) was 89.8% and the activity at 1 µM (CYP3A4; [10]) was 89.9%. For the same compound, the activity at 10 µM (CYP3A4; liver microsomes, pH 7.4, probe midazolam, 10 μM, Exp. 1, read-out: CYP3A4 (midazolam hydroxylase) % of control (Exp. 1)) was 49.5%, the activity at 10 µM (CYP3A4; liver microsomes, pH 7.4, probe midazolam, 10 μM, Exp. 2, read-out: CYP3A4 (midazolam hydroxylase) % of control (Exp. 2)) was 82.3% and the inhibition at 10 µM (CYP3A4; liver microsomes, pH 7.4, probe midazolam, 10 μM, screening assay) was 56%. For the same compound, the IC50 (CYP3A4; liver microsomes, pH 7.4, probe midazolam, concentration-response assay in triplicate) was > 10 µM, the “% Inhibition Nav1.5 (peak current)” value ([5]; 3 μM) was 6.1% and the “% Inhibition Nav1.5 (peak current)” value ([5]; 30 μM) was 16.7%. For the same compound, the “% Inhibition Nav1.5 (peak current)” value ([5]; 100 μM) was 21.1%, the MIC (S. aureus ATCC 29213 [6]) was 0.25 µg/mL (≈ 0.501 µM) and the MIC [7] was 2 µg/mL (≈ 4.01 µM).
